Test [1] has as its system Male Sprague-Dawley rats. Nature of the test: Glycemia and insulinemia after oral administration in fasted rats. The following applies: oral, fasted rat. It counts as in vivo, rat. The text has this:
In normal animals (as in man), the consequence of the administration of insulinotropic compounds is a significant increase in the plasmatic level of insulin. This induced hyperinsulinemia induces a reduction in glycemia. This example studies the evolution of glycemia and of insulinemia following oral administration of the inventive compounds in rats: the insulinotropic action of the compounds in vivo should induce a significant decrease of glycemia.
Male Sprague-Dawley rats (300-320 g) (CERJ—Le Genest St Isle-France) were used in order to carry out this experiment. The rats were fed with a standard diet of granular material; they had free access to food and drink and were kept in individual, ventilated cages in a 12 hr/12 hr light/dark rhythm. The animals were deprived of food for 16 hours prior to the experiment.
The compound was suspended in an aqueous carboxymethylcellulose solution (Sigma C4888) at 1% containing 0.1% Tween80 (Sigma P8074). The animals of the control group received the vehicle alone. The treated animals received a single administration of the compound (the suspension was administered by gavage at the rate of 10 ml/kg). Each group was made up of 11 animals. A 1st blood sample was taken by puncturing the retro-orbital sinus of the animals under volatile isoflurane anaesthesia: this sample makes up the initial time of the experiment. The substance or the vehicle were immediately administered to the animals by gavage, and blood samples were taken over time.
The animals' glycemia was measured in real time using a glucometer (Glucotrend2-Roche Diagnostic-France). The insulinemias were measured using an ELISA kit (Insulin Elisa Kit—Crystal Chem. USA). The method used was of the ELISA type: plasmatic insulin was specifically bound to anti-insulin monoclonal antibodies immobilised on the microtitration plate; simultaneously, an anti-insulin polyclonal guinea pig antibody was added to the reaction. The revelation of the reaction was guaranteed by an antibody coupled to peroxidase. These antibodies bind specifically to the guinea pig's immunoglobulins. The production of oxidised chromogen causes an increase in absorbance in proportion to the quantity of insulin present in the sample.

Test [2] concerns Male Dunkin Hartley guinea pigs. Description: Lipid-lowering effect in guinea pigs on a cholesterol and fat enriched diet. Type of test: in vivo, guinea pig. Particulars: 200 mpk for 14 days; high fat diet. How it is done: The lipid-lowering effect of the inventive compounds was evaluated in vivo in Hartley guinea pigs. In guinea pigs, as in man, a diet enriched in cholesterol and fatty acids induces an increase in the plasmatic levels of lipids. Plasmatic lipid levels (cholesterol and triglycerides) after 14 days treatment were measured and compared to the levels observed for non-treated animals (controls).
Male Dunkin Hartley guinea pigs (Harlan, Gannat, France) aged 5-6 weeks at the start of the experiment were put in groups of 6 animals selected such that the distribution of their body weight and of their plasmatic lipid levels determined before the experiment were uniform. The guinea pigs were given a diet containing 0.2% cholesterol and 14% fats (Research Diets Inc.-USA). They were kept in a 12 hour/12 hour light/dark cycle at a constant temperature of 20±3° C. and had free access to water and food. The amount of food eaten and the increase in weight were recorded. The compounds tested were suspended in an aqueous carboxymethylcellulose solution (Sigma C4888) at 1% containing 0.1% Tween80 (Sigma P8074) and administered daily by intragastric gavage for 14 days at a dose of 200 mg/kg/day. […]
The plasmatic concentrations of the lipids (total cholesterol and triglycerides) were measured by enzymatic titrations (bioMérieux-Lyon-France) according to the supplier's recommendations.

Regarding `CCCCC(NC(=O)Cc1ccc(OC(C)(C)C(=O)NS(C)(=O)=O)cc1)c1ccccc1N1CCCCC1` (stereo not shown) [Compound 52, N-[methylsulfonyl]-2-[4-[1-(1-(2-(1-piperidinyl)phenyl)pentyl)aminocarbonylmethyl]phenoxy]-2-methylpropanamide], the “decrease in glycemia between T=0 and T=120 min” value in test [1] (50 mpk) is recorded as “no measurable effect”; in test [1] (500 mpk), 19%. In addition, the “Cholesterol plasmatic levels, lower than controls” value in test [2] is listed as “approximately 45%”. The “Triglycerides plasmatic levels, lower than controls” value in test [2] is given as “approximately 22%”.

For the origin of these results see patent US20060079696A1, “Substituted compounds derived from N-(benzyl)phenylacetamide, preparation and uses” (GENFIT, priority 2004, published 2006).
